Measured values taken from patent publication US11414454B2, “Compositions, methods, and systems for affinity-based protein identification and purification” (Auctus Biologies, Inc., priority 2017, dated 2022).
Several values for one entry are separate records, joined by “and”; a condition that tells them apart may be missing. Identical values can stand only once. Like-named read-outs stand apart in the source and are kept apart here.

Legend:
[1] = system: immobilized RPtag(large) column; assay: Native elution from immobilized RPtag(large) column (3 M NaCl binding, 3 M imidazole elution); set-up: species or system Thermoanaerobacter tengcongensis; settings: bound in 100 mM Tris pH 8.0, 3 M NaCl, 0.005% Tween20
Sequence of immobilized RPtag(large) column (as listed by the source): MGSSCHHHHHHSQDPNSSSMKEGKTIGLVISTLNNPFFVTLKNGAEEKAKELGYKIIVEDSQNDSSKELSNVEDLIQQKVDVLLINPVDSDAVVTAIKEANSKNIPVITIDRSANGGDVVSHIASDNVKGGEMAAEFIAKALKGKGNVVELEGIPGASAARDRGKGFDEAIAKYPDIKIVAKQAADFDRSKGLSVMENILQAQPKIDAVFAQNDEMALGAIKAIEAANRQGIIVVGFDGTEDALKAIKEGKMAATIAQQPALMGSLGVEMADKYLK
Excerpt: Because of the observed stabilizing character of NaCl and destabilizing character of imidazole on Nd8Cd4 binding, these reagents, among others, were incorporated into a novel buffering system for use with the disclosed proteins, peptides, systems, and methods. In particular, the effect of this novel buffer on binding of RPtag (small) Nd8Cd4 to an immobilized RPtag(large) column was studied. These experiments included eluting both (1) rhodamine labeled peptide and (2) N-terminally RPtag(small) Nd8Cd4 tagged with tagRFP from a column under native conditions. Generally, native conditions is taken to mean at or near biological conditions under which many proteins are folded, e.g. pH 4-9 at moderate temperature (4° C.-30° C.) in the absence of denaturants (e.g. guanidine hydrochloride, urea, SDS). This is in contrast to denaturing conditions, which generally rely on extreme pH (e.g. ≤2) denaturants, or high temperature to unfold proteins.
Briefly, columns, as described above, were first equilibrated with 10 mL 100 mM Tris pH 8.0, 3 M NaCl, 0.005% Tween20. Next, 1 mL of 10 uM rhodamine-tagged Nd8Cd4 or tagRFP containing an N-terminal RPtag (small) Nd8Cd4 tag was applied in the same buffer. The column was then washed with 10 mL of the same buffer. Finally, bound target molecules were eluted with 10 mL of 100 mM Tris pH 8.0, 3 M imidazole, 0.005% Tween20.

[2] = system: RPtag (large); assay: Association/dissociation kinetics of RPtag (small) peptides with RPtag (large) by fluorescence anisotropy; format: binding, Thermoanaerobacter tengcongensis
Sequence of RPtag (large) (as listed by the source): as above
Protocol: Panel a depicts representative association rate kinetics traces varying native RPtag small. Rhodamine labeled RPtag small at the indicated concentration was incubated with unlabeled RPtag large and the association measured by fluorescence anisotropy. L-S complex concentration was calculated by the equation (r−rmin)/(rmax−rmin)*[S] where r is the measured anisotropy, rmin is the anisotropy in the absence of any RPtag large, rmax is the anisotropy measured in the presence of at saturating RPtag large, and [S] is the total concentration of RPtag small used in the experiment. […] Dashed cyan lines are simulations of the mechanism shown in f using the rate constants detailed herein. The concentrations in the simulations were multiplied by a correction factor of 0.925, which is well within the 90% purity specification of the purchased peptide.
LS complex was performed by incubating 1000 nM RPtag large with the indicated concentrations of rhodamine labeled RPtag small. At the start of the experiment, 0.1 mM unlabeled native RPtag small was added and fluorescence anisotropy monitored. Data processing was done as in panel a, except the red fits were to the single exponential decay equation y=y0+A*exp(−b*t). As expected, the initial dissociation rates were linear with respect to the LS complex.
Fitting to a line yields a rate constant (koff)=0.0091 min^−1 (FIG. 9 panel e). In good agreement, when the kinetics are fit with a first order rate law, a rate constant of 0.012±0.002 min^−1 (n=15) was observed. […] Panel e is a graph of the initial rates of the traces represented in d. Slope of the fit line is 0.0091 min^−1. Data are mean±SE (n=3).
The library of mutant RPtag(small) peptides, described above, was next analyzed to measure off rates (koff). The on rate was also calculated from measured koff and Kd (S*-LS transition), except instead of using unlabeled native peptide as the competitor, we used unlabeled Nd2,P5A,E18A (the tightest binding RPtag(small) peptide identified). […] However, there were notable exceptions. […] This indicates, without wishing to be limited, that P5 may constrain the structure of the peptide. The increased flexibility imparted to the peptide by the P5A mutation may decrease the energy barrier required for binding/unbinding.

[3] = system: RPtag(large); assay: pH profile of Kd by fluorescence anisotropy; format: binding, Thermoanaerobacter tengcongensis; settings: buffers pH 1.5 to 13
Sequence of RPtag(large) (as listed by the source): as above
Protocol: The Kds of Nd8,Cd4 for RPtag(large) was measured in the presence of buffers of different pHs ranging from 1.5 to 13.
For these experiments, Kds were measured by fluorescence anisotropy as described above in the following buffers, all at 100 mM with 0.005% Tween 20: glycine pH 1.5, glycine pH 2.0, glycine pH 3.0, acetate pH 4.5, 2-(N-morpholino)ethanesulfonic acid pH 6.0, tris pH 7.0, tris pH 7.5, tris pH 8.0, tris pH 8.5, borate pH 10.0, phosphate pH 11.5, phosphate pH 13.0.

[4] = target: RPtag (large); assay: Buffer additive screen, Kd by fluorescence anisotropy; format: binding, Thermoanaerobacter tengcongensis
Protocol: To determine reagent compatibility with the disclosed system, an additive screen was performed, wherein the Kd between RPtag (large) and 3 RPtag (small) peptides—native, Nd8Cd4, and Nd2p5ae18a—were tested in the presence of several common buffer additives (Table 3).

[5] = system: Bovine Serum Albumin (BSA); format: binding
Protocol: (§1) 50 nM of RP-Tag Small (see Sequence 3, below) with an N-terminal Rhodamine B label was incubated with increasing concentrations of either RP-Tag Large (see Sequence 2) or Bovine Serum Albumin (BSA) in 50 mM Tris pH 8.0, 150 mM NaCl, 10 mM 2-mercaptoethanol, and 0.005% Tween 20 for 5 min in black 96-well plates at room temperature.
(§2) Anisotropy was then measured, and a Kd calculated by fitting the data to the equation f=y0+(ymax−y0)*(Ptot+x+Kd−sqrt((Ptot+x+Kd)^2−4*Ptot*x))/(2*Ptot), where y0 is the baseline anisotropy, ymax is the maximum anisotropy, Ptot is the fixed concentration of labeled peptide used, x is the variable concentration of protein used, and Kd is the measured Kd.
(§3) The indicated concentrations of RPtag (large) and an anti-His tag antibody (4E3D10H2/E3 purchased from ThermoFisher Scientific) were incubated with 1 nM rhodamine labeled native RPtag (small) peptide and 6×His peptide (Rhodamine-GHHHHHH), respectively, and fluorescence anisotropy measured. BSA incubated with native rhodamine labeled RPtag(small) is included as a control for non-specific binding. Kd's were calculated according to the equation f=y0+(ymax−y0)*(Ptot+x+Kd−sqrt((Ptot+x+Kd)^2−4*Ptot*x))/(2*Ptot), where y0 is the baseline anisotropy, ymax is the maximum anisotropy, Ptot is the fixed concentration of labeled peptide used, x is the variable concentration of protein used, and Kd is the measured Kd. We measured a Kd of 0.2±0.1 nM for RPtag(large) binding RPtag(small), and a Kd of 6±1 nM for the antibody/6×His tag pair.

[6] = target: Bovine Serum Albumin (BSA) (Bos taurus, UniProt P02769); format: binding; settings: fluorescence anisotropy, rhodamine labeled peptide, up to 10 μM BSA
Sequence of Bovine Serum Albumin (BSA) (Bos taurus, UniProt P02769) (P02769 25-607): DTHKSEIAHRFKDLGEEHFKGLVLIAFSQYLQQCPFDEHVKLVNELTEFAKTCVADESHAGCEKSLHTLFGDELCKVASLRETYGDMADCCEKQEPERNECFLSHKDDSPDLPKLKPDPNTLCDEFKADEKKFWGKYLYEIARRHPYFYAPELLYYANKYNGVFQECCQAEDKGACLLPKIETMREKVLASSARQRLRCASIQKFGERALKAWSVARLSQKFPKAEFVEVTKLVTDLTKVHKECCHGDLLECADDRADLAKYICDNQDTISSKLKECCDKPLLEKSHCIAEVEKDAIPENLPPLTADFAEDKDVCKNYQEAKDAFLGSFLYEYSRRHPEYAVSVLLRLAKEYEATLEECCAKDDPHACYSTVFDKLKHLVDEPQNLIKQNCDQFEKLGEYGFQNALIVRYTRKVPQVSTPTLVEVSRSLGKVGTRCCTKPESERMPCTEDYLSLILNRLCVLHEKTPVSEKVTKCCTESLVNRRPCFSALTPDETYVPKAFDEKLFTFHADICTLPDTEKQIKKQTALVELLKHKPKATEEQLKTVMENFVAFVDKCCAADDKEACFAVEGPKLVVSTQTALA
Protocol: as §1, §2, §3

[7] = target: RPtag (large); assay: Fluorescence anisotropy Kd of rhodamine labeled RPtag (small) peptides for RPtag (large); format: binding, Thermoanaerobacter tengcongensis
Protocol: as §1, §2, §3
Regarding the studies shown in FIG. 14, increasing concentrations of unlabeled RPtag large with the indicated mutations (native, f137d, and f137e) were incubated for 1 h with 1 nM rhodamine labeled RPtag small peptide and the fluorescence anisotropy was measured. Resultant curves were fit with the equation f=y0+(ymax−y0)*(Ptot+x+Kd−sqrt((Ptot+x+Kd)^2−4*Ptot*x))/(2*Ptot), where y0 is the baseline anisotropy, ymax is the maximum anisotropy, Ptot is the fixed concentration of labeled peptide used, x is the variable concentration of protein used, and Kd is the measured Kd. Data are presented here as Ka=1/Kd. Log transformed Ka's were then compared by one-way ANOVA with Holm-Sidak post hoc correction. ***p<0.001, **p<0.01, *p<0.05. data are mean±SEM (n=3-4). Buffer was 50 mM Tris pH 8.0, 0.005% tween20. Proteins were expressed and purified by single step NiNTA chromatography as before. Peptides were synthesized solid-state and handled as previous.

[8] = system: F137D RPtag(large); assay: Compensatory mutation binding study by fluorescence anisotropy; set-up: species or system Thermoanaerobacter tengcongensis; settings: 1 nM rhodamine labeled peptide
Sequence of F137D RPtag(large) (as listed by the source, stated change not applied): as the sequence (as listed by the source) above, with F137D counted along it
Excerpt: The possibility of creating compensatory mutations in the two sequences was investigated by modifying position 14 of RPtag(small) and position 137 of RPtag(large). First, a positively charged lysine (K) was introduced at position L14 of RPtag(small) (FIG. 14). […] Next, position F137 of RPtag(large) was mutated to aspartic acid (D), which is a negatively charged residue under physiologic conditions. This substitution was introduced into RPtag(large) to balance the charge with the L14K substitution, and help restore interaction between the two residues. […] In other embodiments, different compensatory mutations may be introduced at F137 and L14, as well as other positions in the two RPtag proteins.
Regarding the studies shown in FIG. 14, increasing concentrations of unlabeled RPtag large with the indicated mutations (native, f137d, and f137e) were incubated for 1 h with 1 nM rhodamine labeled RPtag small peptide and the fluorescence anisotropy was measured. Resultant curves were fit with the equation f=y0+(ymax−y0)*(Ptot+x+Kd−sqrt((Ptot+x+Kd)^2−4*Ptot*x))/(2*Ptot), where y0 is the baseline anisotropy, ymax is the maximum anisotropy, Ptot is the fixed concentration of labeled peptide used, x is the variable concentration of protein used, and Kd is the measured Kd. Data are presented here as Ka=1/Kd. […]

[9] = system: RPtag (large) resin; assay: Affinity-based precipitation/pull-down with RPtag (large) resin; format: binding, Thermoanaerobacter tengcongensis; settings: negative control peptide
Sequence of RPtag (large) resin (as listed by the source): as the sequence (as listed by the source) above
Protocol: The disclosed proteins and peptides were used in precipitation/pull-down assays. Specifically, rhodamine was tagged with the RPtag(small) Nd8Cd4 peptide and RPtag(large) was immobilized on a resin, as described above.
Briefly, 100 μL 1000 nM rhodamine labeled RPtag(small) peptide was incubated with 2.5 uL wet settled RPtag (large) resin generated as (as described above) in phosphate buffered saline (PBS; Gibco)+1% BSA+0.005% Tween 20 at 4° C. for 60 min with continuous orbital shaking. Samples were then washed 3× with 500 μL of the same buffer with no peptide to remove unbound peptide. Bound RPtag(small) peptides were then eluted with 100 μL 100 mM glycine pH 1.5+0.005% Tween20, and the pH raised by adding 1 μL 1 M borate pH 10.0. The amount eluted was calculated from the blank subtracted fluorescence of the elution versus the load. After each elution, resin was washed once with 500 μL 6M GdnHCl and once with 500 μL phosphate buffered saline (Gibco)+1% BSA+0.005% Tween 20, before repeating the assay.
Sequential precipitation/pulldown trials were performed with the rhodamine labelled RPtag(small) Nd8Cd4 peptide, and the RPtag(large)-resin. After binding and pull-down, the rhodamine-peptide was eluted in 100 mM glycine pH 1.5, the column was washed with water and 6 M guanidine hydrochloride, and then re-equilibrated with buffer (50 mM Tris pH 8.0, 10 mM EDTA). […]

Sequence: GEKIPNFIPAELKLITKENVQ [native]
- elution behaviour with 100 mM Tris pH 8.0, 3 M imidazole [1]: diffuse band
- slope of initial velocity line using S (total) ([2]; 1000 nM RPtag(large)): 0.035 min⁻¹
- rate constant for conversion of S to S* from linear fit of initial rate plot, S (corrected) ([2]; 1000 nM RPtag(large), 0.6 to 10 nM RPtag (small)): 0.091 min⁻¹
- dissociation rate constant from first order rate law fit ([2]; 0.1 mM unlabeled native RPtag small competitor, n=15): 0.012 ± 0.002 min⁻¹
- koff ([2]; LS dissociation, unlabeled competitor peptide, listed as native RPtag (small)): 0.000152 s⁻¹
- kr ([2]; S* to S reverse rate constant, calculated from Keq and kf, listed as native RPtag (small)): 0.056 min⁻¹
- kon (M^−1 min^−1 ) (×10^7) ([2]; S*-LS transition, calculated from measured koff and Kd): 4.3 ± 0.1 ×10^7 M^−1 min^−1
- pH of relative maximum affinity [3]: ~8 pH
- Kd ([4]; Gdn-HCl (6M)): > 10 µM
- Kd ([4]; SDS (2%)): > 10 µM
- Kd ([4]; imidazole (3M)): > 10 µM
- Kd ([4]; urea (8M)): > 10 µM
- selectivity over non-specific (BSA) interaction [5]: > 50,000 fold
- binding to BSA ([6]; listed as RPtag (small)): no detectable binding
- binding to BSA ([6]; listed as native RPtag (small)): no interaction was detected
- Kd ([7]; Example 6, 1 nM rhodamine labeled native RPtag (small)): 0.0002 µM and ~0.0002 µM

Sequence: GEKIPNFIPAELKKITKENVQ [l14k]
- binding affinity for F137D RPtag(large) [8]: substantially restored the binding affinity
- binding to native RPtag(large) ([7]; 1 nM rhodamine labeled peptide, 50 mM Tris pH 8.0, 0.005% tween20): significantly impaired binding

Sequence: GEKIPNFIP [Cd12]
- binding in pulldown [9]: no binding
- Kd ([7]; N-terminal rhodamine tagged peptide, unlabeled RPtag (large), 50 mM Tris pH 8.0, 0.005% Tween 20, mean ± SE): > 100 µM
